According to patent US11173173B2, “Methods for treating chemoresistant cancer-initiating cells” (UNIVERSITY OF CONNECTICUT, priority 2015, dated 2021):

Tests used:
Type in all cases: in vivo, mouse
[1] = tested on: LSCs and HSPCs of leukemic Pten:β-catAct mice; assay: Example 6: LSCs and HSPCs in BM of leukemic mice, Doxo vs NanoDoxo vs Doxil with chemotherapy; conditions: Doxo 0.5 mg/kg x5 daily, NanoDoxo or Doxil single 0.8 mg/kg, BM 5-6 days after treatment
Text: All drugs were solubilized in 45% (2-Hydroxypropyl)-β-cyclodextrin (HBC).

[2] = tested on: blast cells, LSCs and HSPCs sorted from treated leukemic mice; assay: Limiting-dilution transplants into NSG recipients, CRU frequency (ELDA); conditions: for Engrafted: HSPCs
Protocol: Leukemic mice were treated with vehicle, chemotherapy, [Low]DXR or chemotherapy+[Low]DXR as described in FIG. 3a. a-c, At 10 days post-treatment, BM was analyzed by flow cytometry to determine frequency of blast cells (a), LSCs (b) and HSPCs (c). Shown are representative plots. d, Average frequency±SD of each population from a-c (n≥6 per group). e, Limiting-dilution assays to determine CRU frequency were performed on blast cells and LSCs sorted from chemotherapy treated leukemic mice and on HSPCs sorted from [Low]DXR treated mice. Engraftment 1% blast cells) was determined in NSG recipients at 10-12 weeks post-transplant.
Limiting-dilution and tumorigenic assays were performed by establishing leukemic mice as described above and treating as indicated at 8 weeks post-induction. For limiting-dilution transplants, mice were treated with chemotherapy or [Low]DXR and, at 10 days post-treatment (based on first treatment), CD45^Hi CD^3+ c-Kit^− blast cells or Lin^− CD^3+ c-Kit^Mid LSCs were sorted from chemotherapy treated mice and Lin^− Sca-1^+ c-Kit^+ HSPCs were sorted from [Low]DXR treated mice. The indicated numbers of these populations were transplanted into 3.25 Gy irradiated NOD. Cg-Prkdc^scid II2rg^tm1WjI/SzJ (NSG) recipient mice. Recipient bone marrow was analyzed by flow cytometry at 10-12 weeks post-transplant and those with ≥1% CD45^Hi blast cells in bone marrow were considered engrafted. CRU frequency was determined using ELDA analysis.

pS^552-β-catenin = assay: Anti-pS552-β-catenin staining of populations sorted from treated leukemic mice; conditions: [Low]DXR 0.5 mg/kg daily x5; chemotherapy Nelarabine 217 mg/kg + Dexamethasone 10 mg/kg daily x5
Text: Open arrows indicate a single treatment cycle for typical clinical use of DXR and targeted use strategy (inner box) drawn to relative scales. Triangles represent DXR treatment drawn proportionally to scale. The cumulative targeted dose (distributed over 5 days consecutively) is indicated to relative scale by the inner triangle (white) (see Methods). c, Representative flow cytometry sorting gates indicating HSPC, LSC and (non-LSC) T-ALL blast cell populations. d, Populations from (c) were sorted from leukemic mice treated as indicated in (a,b) with vehicle, chemotherapy, [Low]DXR or chemotherapy+[Low]DXR and stained with Anti-pS^552-β-catenin antibody. Mean fluorescent intensity (MFI) is indicated for each population and treatment. e, Representative images of pS^552-β-catenin staining of LSCs sorted from mice treated as indicated from (d). Scale bars, 30 μm (inset 3 μm).
Chemotherapy consisted of Nelarabine (Selleck) and Dexamethasone (BioVision) administered daily for 5 days consecutively. 43.4 mg/ml Nelarabine was administered intravenously via the tail vain according to the formula: Body Weight (g)×5=volume to inject (μl), which yielded 217 mg/kg. 2.5 mg/ml Dexamethasone was injected intraperitoneally according to the formula: Body Weight (g)×4=volume to inject (μl), yielding 10 mg/kg. […]
It was next determined whether DXR could inhibit pS^552-β-catenin in vivo. […]

[3] = tested on: tumorigenic cells (functional LSCs) in BM of treated leukemic mice; assay: Tumorigenic assay: BM of treated leukemic mice transplanted into NSG recipients
Protocol: At 12 days post-treatment, BM was harvested from treated mice and transplanted into sub-lethally irradiated NSG recipients. a, Treatment schematic and Kaplan-Meier curves of recipient mice. b, Recipients of BM from [Low]DXR only treated leukemic mice were analyzed by flow cytometry at 6 months post-transplant. […] Dashed line indicates day of final [Low]nanoDXR treatment. f, Surviving [Low]nanoDXR treated mice were analyzed by flow cytometry at 230 days post-treatment.
At 12 days post-treatment, BM was harvested from treated mice and transplanted into sub-lethally irradiated NSG recipients. a, Treatment schematic and Kaplan-Meier curves of recipient mice.
Tumorigenic assays were performed by transplanting 0.5, 1.5, or 4.5×10^4 bone marrow cells from treated mice at 12 days post-treatment into 3.25 Gy irradiated NSG recipient mice. 10 recipients were used for each dose from each group. One male and one female donor was used for each group. Leukemia was assessed in mice euthanized due to poor health by analyzing CD45^Hi CD3^+ cell frequency. Mice having >20% Blasts in the bone marrow were considered leukemic.
A cohort of mice was established as in FIG. 3a. One week after completion of treatment with vehicle, chemotherapy, [Low]DXR, or chemotherapy+[Low]DXR, we transplanted BM from treated mice into irradiated NSG recipients to test for tumorigenic cells.

[4] = tested on: leukemic Pten:β-cat^Act (T-ALL) mice; assay: Long-term survival of treated leukemic mice; conditions: single treatment cycle, no transplantation
Protocol: Chemotherapy consisted of Nelarabine (Selleck) and Dexamethasone (BioVision) administered daily for 5 days consecutively. 43.4 mg/ml Nelarabine was administered intravenously via the tail vain according to the formula: Body Weight (g)×5=volume to inject (μl), which yielded 217 mg/kg. 2.5 mg/ml Dexamethasone was injected intraperitoneally according to the formula: Body Weight (g)×4=volume to inject (μl), yielding 10 mg/kg. […] [Low]NanoDXR (also referred to as [Low]NanoDoxo throughout) treatment used doxorubicin nanoparticles as described in International Patent Publication WO 2015/054269 (incorporated by reference in its entirety) administered as a single IV injection once per week on day 1 relative to above treatments using 0.8 mg/kg. Maintenance [Low]NanoDXR consisted of once per week injections of 0.4 mg/kg. Groups combining Nelarabine with Doxorubicin used a single injection containing both drugs. All drugs were solubilized in 45% (2-Hydroxypropyl)-β-cyclodextrin (HBC).

Structure (SMILES): COc1cccc2c1C(=O)c1c(O)c3c(c(O)c1C2=O)C[C@@](O)(C(=O)CO)C[C@@H]3O[C@H]1C[C@H](N)[C@H](O)[C@H](C)O1 [DXR, doxorubicin]
- HSPC recovery in BM [1]: facilitates recovery of HSPCs
- LSCs in BM [1]: prevents this expansion
- engraftment behaviour of HSPCs sorted from treated mice ([2]; 10-12 weeks post-transplant): only engrafted at low levels without developing into leukemia
- Engrafted ([2]; dose 50, 5 tested): 0
- Engrafted ([2]; dose 150, 6 tested): 1
- Engrafted ([2]; dose 450, 5 tested): 1
- pS552-β-catenin level in LSCs sorted from treated mice (pS^552-β-catenin): reduced in LSCs isolated from mice recently treated with [Low]DXR, although consistent variability yielded no statistical significance
- blast cells, LSCs and HSPCs in surviving recipients ([3]; 6 months post-transplant): only trace levels of blast cells and LSCs, and HSPCs were within normal parameters
- recipients remaining healthy nearly 6 months post-transplant ([3]; recipients of BM from treated leukemic mice): 29/30
- survival of treated leukemic mice [4]: only minor and insignificant improvement
